The values below come from publication PMC6615597, “Spermine in semen of male sea lamprey acts as a sex pheromone” (PLoS Biology, 2019).

A word on the IC50: it is the point on the concentration scale where inhibition reaches its midpoint. Low values mean greater potency in that assay, high ones weaker potency in that assay. For orientation: EC50 means the midpoint of the concentration-response curve. The low end stands for greater potency, the high end for weaker potency.

Experiment [1] relates to T1, TAAR348 (trace amine-associated receptor (TAAR)-like receptor 348).
T1 construct: full-length ORF (348 residues) with N-terminal Rho-tag, expressed in HEK293T
The experiment in a line: TR-FRET cAMP assay in TAAR348-expressing HEK293T cells; inhibition of […] spermine response. It counts as cell-based, Petromyzon marinus.

Experiment [2] has the same test system. As to the kind of experiment: TR-FRET cAMP assay in TAAR348-expressing HEK293T cells (agonist). It counts as cell-based, Petromyzon marinus. A general note: TR-FRET usually uses a lanthanide donor and a delayed reading to cut background.
The subject of experiment [3] is TAAR348 (trace amine-associated receptor (TAAR)-like receptor 348).

Each structure is given as a SMILES string. Read-outs that look alike come from different tables or passages of the source.

With `C1CNCCNCCNCCN1` [SP20, 1,4,7,10-tetraazacyclododecane], 0.6 ± 0.1 µM corresponded to half-maximal inhibition in experiment [1] (IC50).
Turning to `NCCCNCCCCNCCCNC(=O)Cc1cccc2ccccc12` [SP21, 1-naphthylacetyl spermine], it took 5 ± 1 µM to reach a half-maximal effect in experiment [2] (EC50).
With `NCCCNCCCCNCCCN` [spermine], the EC50 in experiment [3] stood at 34 ± 1 µM.
